This is an account of results in ChEMBL document CHEMBL1777668, “Structure-activity relationship of cyclic thiacarbocyanine tau aggregation inhibitors” (Bioorg Med Chem Lett, 2011).

Test [1] is filed under the species Homo sapiens. The test is described as follows: Inhibition of octadecyl sulfate-induced recombinant human tau 2N4R aggregation at 10 uM by electron microscopy.
The species named for test [2] is Homo sapiens. Kind of test: Inhibition of octadecyl sulfate-induced recombinant human tau 2N4R aggregation at 1 uM by electron microscopy.

Structures are written as SMILES. The source made the active and inactive calls. The rule behind the calls is not given here.

Take `C1=C2\Sc3ccccc3N2CCC[n+]2c(sc3ccccc32)/C=C/C=C2\Sc3ccccc3N2CCC[n+]2c(sc3ccccc32)/C=C/1`: the inhibition entry in the test listed under Homo sapiens [1] was “Active”. For the same molecule, the inhibition entry in the test listed under Homo sapiens [2] is “inactive”. With `C1=C2\Sc3ccccc3N2CCCCCCCC[n+]2c(sc3ccccc32)/C=C/C=C2\Sc3ccccc3N2CCCCCCCC[n+]2c(sc3ccccc32)/C=C/1`, the inhibition result in the test listed under Homo sapiens [1] is “Active”.

Regarding `C1=C2\Sc3ccccc3N2CCCCCCC[n+]2c(sc3ccccc32)/C=C/C=C2\Sc3ccccc3N2CCCCCCC[n+]2c(sc3ccccc32)/C=C/1`, the inhibition result in the test listed under Homo sapiens [1] was “Active”. `C1=C2\Sc3ccccc3N2CCCC[n+]2c(sc3ccccc32)/C=C/C=C2\Sc3ccccc3N2CCCC[n+]2c(sc3ccccc32)/C=C/1`: the inhibition result in the test filed under Homo sapiens [1] and in the test filed under Homo sapiens [2] was “Active” throughout. In the case of `C1=C2\Sc3ccccc3N2CCCCCC[n+]2c(sc3ccccc32)/C=C/C=C2\Sc3ccccc3N2CCCCCC[n+]2c(sc3ccccc32)/C=C/1`, the inhibition entry in the test listed under Homo sapiens [1] was “Active”. As for `C1=C2\Sc3ccccc3N2CCCCC[n+]2c(sc3ccccc32)/C=C/C=C2\Sc3ccccc3N2CCCCC[n+]2c(sc3ccccc32)/C=C/1`, the inhibition entry in the test filed under Homo sapiens [1] was “Active”.
